Data on 28 molecules can be found in patent US20120101134A1, “5-MEMBERED HETEROARYL DERIVATIVES USED AS SPHINGOSINE 1-PHOSPHATE RECEPTOR AGONISTS” (GLAXO GROUP LIMITED, priority 2009, published 2012).

A value given as a limit tells only on which side of the number the result lay.

The target in this assay is T1, human Endothelial Differentiation Gene 1 (EDG1) (Homo sapiens, UniProt P21453).
T1 construct: TEV protease site; Gal4-VP16 transcription factor; expressed in transfected cells; host or cells: EDG1-bla/U2OS (Tango GPCR-bla U2OS parental cell line)
T1 sequence (P21453 whole entry, the tested form may be a part): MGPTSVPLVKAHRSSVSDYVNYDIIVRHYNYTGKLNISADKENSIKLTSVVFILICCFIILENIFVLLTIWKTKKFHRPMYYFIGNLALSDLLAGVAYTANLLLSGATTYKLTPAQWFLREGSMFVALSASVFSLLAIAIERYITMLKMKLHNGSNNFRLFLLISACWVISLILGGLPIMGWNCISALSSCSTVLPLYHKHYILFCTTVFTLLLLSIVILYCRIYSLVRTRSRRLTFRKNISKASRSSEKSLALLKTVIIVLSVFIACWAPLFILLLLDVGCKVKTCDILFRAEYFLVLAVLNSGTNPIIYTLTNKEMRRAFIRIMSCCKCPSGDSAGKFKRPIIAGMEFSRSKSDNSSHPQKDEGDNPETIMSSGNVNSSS
Description: S1P1 Tango assay - 384 well format. It counts as cell-based. As to conditions: EDG1-bla/U2OS cells, agonist. As for the experimental part: S1P1 Tango assay—384 Well Format
Recombinant EDG1-bla/U2OS cells (contain the human Endothelial Differentiation Gene 1 (EDG1) linked to a TEV protease site and a Gal4-VP16 transcription factor stably integrated into the Tango GPCR-bla U2OS parental cell line) were harvested from growth medium and passaged into assay medium (Invitrogen Freestyle Expression Medium). The cells were starved for 24 hours at 37° C., 5% CO2, harvested and resuspended in assay medium at a density of ˜200,000 cells/ml. All test compounds were dissolved in DMSO at a concentration of 10 mM and were prepared in 100% DMSO to provide 10 point dose response curves. Test compounds prepared by Bravo (Velocity11) were added to wells in columns 2-11 and 13-22; DMSO was added to wells in columns 12 and 23 as unstimulated controls and assay medium was added to wells in columns 1 and 24 as cell-free controls. An S1P1 agonist was added to wells in row 2, columns 2-11 as stimulated controls and test compounds were added to wells in row 2, columns 13-22 and rows 3-15, columns 2-11/13-22 (row 1 and 16 were empty and not used). Compounds in solution were added to the assay plate (Greiner 781090) using an Echo (Labcyte) dose-response program (50 nl/well). The unstimulated and cell-free controls were loaded with 50 nl/well pure DMSO to ensure that the DMSO concentration was constant across the plate for all assays.
50 μl of the cell suspension was added to each well in columns 2-23 of the plate (˜10,000 cells per well). 50 μl of assay medium was added to each well in the cell-free controls (columns 1 and 24). The cells were incubated overnight at 37° C./5% CO2.
10 μl of 6× substrate mixture (LiveBLAzer™-FRET B/G substrate (CCF4-AM) Cat #K1096 from Invitrogen, Inc.) was added to each well using Bravo and the plates incubated at room temperature for 2 h in the dark. The plate was finally read on EnVision using one excitation channel (409 nm) and two emission channels (460 nm and 530 nm).
The blue/green emission ratio (460 nm/530 nm) was calculated for each well, by dividing the background-subtracted Blue emission values by the background-subtracted Green emission values. The dose response curve is based on sigmoidal dose-response model. All ratio data was normalized based upon the maximum emission ratio of positive control and minimum emission ratio of negative control (DMSO) on each plate. The intrinsic activity (IA) of each compound would be the normalized percentage of its maximum response after curve fitting.
On to `Cc1c(-c2noc(-c3ccc(OC(C)C)c(Cl)c3)n2)ccnc1CCCC(=O)O` [Example 7, 4-[4-(5-{3-chloro-4-[(1-methylethyl)oxy]phenyl}-1,2,4-oxadiazol-3-yl)-3-methyl-2-pyridinyl]butanoic acid], for which the EC50 (usually the concentration needed to bring the measured effect to its halfway point) is ≤ 10 nM.

For `CC(C)Oc1ncc(-c2nc(-c3cccc(CCC(=O)O)c3Cl)no2)cc1Cl` [Example 8, 3-[2-chloro-3-(5-{5-chloro-6-[(1-methylethyl)oxy]-3-pyridinyl}-1,2,4-oxadiazol-3-yl)phenyl]propanoic acid], the EC50 is ≤ 10 nM.

Regarding `CC(C)Oc1ccc(-c2nc(-c3cccc(CCCC(=O)O)c3Cl)no2)cc1C#N` [Example 11, 4-[2-chloro-3-(5-{3-cyano-4-[(1-methylethyl)oxy]phenyl}-1,2,4-oxadiazol-3-yl)phenyl]butanoic acid], the EC50 was ≤ 1 nM.

`CC(C)Oc1ccc(-c2nc(-c3cccc(CCCCCC(=O)O)c3Cl)no2)cc1C#N` [Example 12, 6-[2-chloro-3-(5-{3-cyano-4-[(1-methylethyl)oxy]phenyl}-1,2,4-oxadiazol-3-yl)phenyl]hexanoic acid]: the EC50 was ≤ 1 nM.

In the case of `CCc1c(CCCC(=O)O)cccc1-c1noc(-c2cnc(OC(C)C)c(Cl)c2)n1` [Example 14, 4-[3-(5-{5-chloro-6-[(1-methylethyl)oxy]-3-pyridinyl}-1,2,4-oxadiazol-3-yl)-2-ethylphenyl]butanoic acid], the EC50 is ≤ 10 nM.

In the case of `CCc1c(CCCC(=O)O)cccc1-c1noc(-c2ccc(OC(C)C)c(C#N)c2)n1` [Example 15, 4-[3-(5-{3-cyano-4-[(1-methylethyl)oxy]phenyl}-1,2,4-oxadiazol-3-yl)-2-ethylphenyl]butanoic acid], the EC50 is ≤ 1 nM.

As for `COc1c(CCCC(=O)O)cccc1-c1noc(-c2ccc(OC(C)C)c(Cl)c2)n1` [Example 17, 4-[3-(5-{3-chloro-4-[(1-methylethyl)oxy]phenyl}-1,2,4-oxadiazol-3-yl)-2-(methyloxy)phenyl]butanoic acid], the concentration giving a half-maximal response (EC50) was ≤ 1 nM.

As for `CC(C)Oc1ccc(-c2nc(-c3ccnc(CCC(=O)O)c3)no2)cc1C#N` [Example 20, 3-[4-(5-{3-cyano-4-[(1-methylethyl)oxy]phenyl}-1,2,4-oxadiazol-3-yl)-2-pyridinyl]propanoic acid], the EC50 was ≤ 1000 nM.

For `CC(C)Oc1ccc(-c2nc(-c3ccc(F)c(CCC(=O)O)c3)no2)cc1C#N` [Example 22, 3-[5-(5-{3-cyano-4-[(1-methylethyl)oxy]phenyl}-1,2,4-oxadiazol-3-yl)-2-fluorophenyl]propanoic acid], the EC50 was ≤ 1000 nM.

On to `CC(C)Oc1ccc(-c2nc(-c3ccc(F)c(CCCC(=O)O)c3)no2)cc1C#N` [Example 23, 4-[5-(5-{3-cyano-4-[(1-methylethyl)oxy]phenyl}-1,2,4-oxadiazol-3-yl)-2-fluorophenyl]butanoic acid], for which the EC50 is ≤ 1000 nM.

With `CC(C)Oc1ccc(-c2nc(-c3cccc(CCC(=O)O)c3C(F)(F)F)no2)cc1C#N` [Example 24, 3-[3-(5-{3-cyano-4-[(1-methylethyl)oxy]phenyl}-1,2,4-oxadiazol-3-yl)-2-(trifluoromethyl)phenyl]propanoic acid], the EC50 was ≤ 10 nM.

Take `CC(C)Oc1ccc(-c2nc(-c3cccc(CCCC(=O)O)c3C(F)(F)F)no2)cc1C#N` [Example 25, 4-[3-(5-{3-cyano-4-[(1-methylethyl)oxy]phenyl}-1,2,4-oxadiazol-3-yl)-2-(trifluoromethyl)phenyl]butanoic acid]: the EC50 was ≤ 100 nM.

As for `CCc1c(CCCC(=O)O)cccc1-c1noc(-c2ccc(OC(C)C)c(Cl)c2)n1` [Example 28, 4-[3-(5-{3-chloro-4-[(1-methylethyl)oxy]phenyl}-1,2,4-oxadiazol-3-yl)-2-ethylphenyl]butanoic acid], the EC50 was ≤ 1 nM.

Regarding `CCc1c(CCC(=O)O)cccc1-c1noc(-c2ccc(OC(C)C)c(Cl)c2)n1` [Example 29, 3-[3-(5-{3-chloro-4-[(1-methylethyl)oxy]phenyl}-1,2,4-oxadiazol-3-yl)-2-ethylphenyl]propanoic acid], the EC50 was ≤ 1 nM.

Take `COc1c(CCC(=O)O)cc(F)cc1-c1noc(-c2ccc(OC(C)C)c(C#N)c2)n1` [Example 30, 3-[3-(5-{3-cyano-4-[(1-methylethyl)oxy]phenyl}-1,2,4-oxadiazol-3-yl)-5-fluoro-2-(methyloxy)phenyl]propanoic acid]: the EC50 is ≤ 1 nM.

On to `COc1c(CCCC(=O)O)cc(F)cc1-c1noc(-c2ccc(OC(C)C)c(C#N)c2)n1` [Example 31, 4-[3-(5-{3-cyano-4-[(1-methylethyl)oxy]phenyl}-1,2,4-oxadiazol-3-yl)-5-fluoro-2-(methyloxy)phenyl]butanoic acid], for which the EC50 was ≤ 1 nM.

In the case of `COc1c(CCCC(=O)O)cc(F)cc1-c1noc(-c2cnc(OC(C)C)c(Cl)c2)n1` [Example 32, 4-[3-(5-{5-chloro-6-[(1-methylethyl)oxy]-3-pyridinyl}-1,2,4-oxadiazol-3-yl)-5-fluoro-2-(methyloxy)phenyl]butanoic acid], the EC50 is ≤ 10 nM.

On to `COc1c(CCC(=O)O)cc(F)cc1-c1noc(-c2cnc(OC(C)C)c(Cl)c2)n1` [Example 33, 3-[3-(5-{5-chloro-6-[(1-methylethyl)oxy]-3-pyridinyl}-1,2,4-oxadiazol-3-yl)-5-fluoro-2-(methyloxy)phenyl]propanoic acid], for which the half-maximal effective concentration (EC50) was ≤ 100 nM.

`COc1c(CCC(=O)O)cc(F)cc1-c1noc(-c2ccc(OC(C)C)c(Cl)c2)n1` [Example 34, 3-[3-(5-{3-chloro-4-[(1-methylethyl)oxy]phenyl}-1,2,4-oxadiazol-3-yl)-5-fluoro-2-(methyloxy)phenyl]propanoic acid]: the EC50 is ≤ 10 nM.

Regarding `COc1c(CCCC(=O)O)cc(F)cc1-c1noc(-c2ccc(OC(C)C)c(Cl)c2)n1` [Example 35, 4-[3-(5-{3-chloro-4-[(1-methylethyl)oxy]phenyl}-1,2,4-oxadiazol-3-yl)-5-fluoro-2-(methyloxy)phenyl]butanoic acid], the EC50 is ≤ 1 nM.

Regarding `CCCc1c(CCCC(=O)O)cccc1-c1noc(-c2ccc(OC(C)C)c(Cl)c2)n1` [Example 36, 4-[3-(5-{3-chloro-4-[(1-methylethyl)oxy]phenyl}-1,2,4-oxadiazol-3-yl)-2-propylphenyl]butanoic acid], the EC50 was ≤ 10 nM.

Regarding `CCCc1c(CCCC(=O)O)cccc1-c1noc(-c2ccc(OC(C)C)c(C#N)c2)n1` [Example 37, 4-[3-(5-{3-cyano-4-[(1-methylethyl)oxy]phenyl}-1,2,4-oxadiazol-3-yl)-2-propylphenyl]butanoic acid], the EC50 was ≤ 10 nM.

Take `CCc1c(OCCCC(=O)O)cccc1-c1noc(-c2ccc(OC(C)C)c(C#N)c2)n1` [Example 38, 4-{[3-(5-{3-cyano-4-[(1-methylethyl)oxy]phenyl}-1,2,4-oxadiazol-3-yl)-2-ethylphenyl]oxy}butanoic acid]: the EC50 is ≤ 10 nM.

On to `CCc1c(OCCCC(=O)O)cccc1-c1noc(-c2ccc(OC(C)C)c(Cl)c2)n1` [Example 39, 4-{[3-(5-{3-chloro-4-[(1-methylethyl)oxy]phenyl}-1,2,4-oxadiazol-3-yl)-2-ethylphenyl]oxy}butanoic acid], for which the EC50 was ≤ 1 nM.

For the molecule `CCc1c(OCC(=O)O)cccc1-c1noc(-c2ccc(OC(C)C)c(C#N)c2)n1` [Example 40, {[3-(5-{3-cyano-4-[(1-methylethyl)oxy]phenyl}-1,2,4-oxadiazol-3-yl)-2-ethylphenyl]oxy}acetic acid], the EC50 was ≤ 10 nM.

Consider `CCc1c(CCCC(=O)O)cccc1-c1nnc(-c2ccc(OC(C)C)c(C#N)c2)o1` [Example 41, 4-[3-(5-{3-cyano-4-[(1-methylethyl)oxy]phenyl}-1,3,4-oxadiazol-2-yl)-2-ethylphenyl]butanoic acid], for which the EC50 was ≤ 10 nM.

Take `CCc1c(CNCCC(=O)O)cccc1-c1nsc(-c2ccc(OC(C)C)c(C#N)c2)n1` [Example 48, N-{[3-(5-{3-cyano-4-[(1-methylethyl)oxy]phenyl}-1,2,4-thiadiazol-3-yl)-2-ethylphenyl]methyl}-b-alanine]: the EC50 was ≤ 10 nM.

`CCc1c(CCN(C)CC(=O)O)cccc1-c1nsc(-c2ccc(OC(C)C)c(Cl)c2)n1` [Example 49, N-{2-[3-(5-{3-chloro-4-[(1-methylethyl)oxy]phenyl}-1,2,4-thiadiazol-3-yl)-2-ethylphenyl]ethyl}-N-methylglycine]: the EC50 was ≤ 1 nM.
